According to patent US20120329784A1, “COMPOUNDS AND METHODS” (priority 2010, published 2012):
Where a name gives a salt, the structure may show the parent alone. Read-outs that look alike come from different tables or passages of the source.

Biological target: T1, Full length human TNNI3K (hTNNI3K) (Homo sapiens, UniProt Q59H18)
T1 construct: His-MBP-TEV-Full length human TNNI3K (hTNNI3K); His (N); MBP (N); TEV cleavage site (N); made in house; host or cells: baculovirus expression system (printed 'Baculokinase system')
T1 sequence (Q59H18 1-835): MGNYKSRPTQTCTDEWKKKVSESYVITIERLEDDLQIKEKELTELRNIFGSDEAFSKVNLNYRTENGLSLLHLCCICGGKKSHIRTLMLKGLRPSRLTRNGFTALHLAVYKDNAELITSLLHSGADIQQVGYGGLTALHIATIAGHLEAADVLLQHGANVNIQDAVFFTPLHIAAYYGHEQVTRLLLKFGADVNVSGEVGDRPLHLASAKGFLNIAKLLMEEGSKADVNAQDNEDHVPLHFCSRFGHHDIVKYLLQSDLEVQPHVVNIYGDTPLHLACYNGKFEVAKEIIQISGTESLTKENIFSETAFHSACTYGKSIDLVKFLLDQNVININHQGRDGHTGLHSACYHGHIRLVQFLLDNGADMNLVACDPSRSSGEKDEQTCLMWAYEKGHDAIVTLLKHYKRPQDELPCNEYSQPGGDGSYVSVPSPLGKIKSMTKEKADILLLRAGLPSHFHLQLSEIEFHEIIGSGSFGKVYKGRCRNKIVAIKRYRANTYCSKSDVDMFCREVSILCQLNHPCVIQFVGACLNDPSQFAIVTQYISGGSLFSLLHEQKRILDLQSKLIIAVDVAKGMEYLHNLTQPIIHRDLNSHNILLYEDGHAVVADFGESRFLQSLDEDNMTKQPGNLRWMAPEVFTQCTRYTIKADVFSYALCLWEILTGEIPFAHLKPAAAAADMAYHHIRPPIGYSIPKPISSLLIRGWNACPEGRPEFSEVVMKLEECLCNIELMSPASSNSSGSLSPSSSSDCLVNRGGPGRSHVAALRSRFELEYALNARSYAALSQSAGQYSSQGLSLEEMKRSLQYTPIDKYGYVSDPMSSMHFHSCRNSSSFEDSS
Assay: Fluorescent polarization assay of compound inhibition on hTNNI3K ATP binding (Biological Assay Method I)
From the text: Materials: His-MBP-TEV-Full length human TNNI3K (hTNNI3K) was expressed in Baculokinase system and purified from amylase affinity column followed by Superdex200. […] The preparation of this fluorescent ligand is disclosed in U.S. Provisional Patent Application No. 61/237,815 filed Aug. 28, 2009, the disclosure of which is incorporated by reference herein. The other buffer components, including MgCl2 (Catalog Number M1028), Bis-Tris (Catalog Number B7535), DTT (Catalog Number D9779) and Chaps (Catalog Number C3023) were purchased from Sigma-Aldrich.
A fluorescent polarization assay was used to determine does response of compound inhibition on hTNNI3K ATP binding. […]
Fifty (50) nL of inhibitors in DMSO (or DMSO controls) were stamped into a 384-well low volume Greiner black plate, followed by addition of 5 μL of Solution 1 to column 18 and 5 μL Solution 2 to columns 1-17 and 19-24 of the plate. […] After that, the fluorescent polarization was measured on Analyst (ex/em: 485/530 nm, Dichroic: 505). […]

Structure (SMILES) | IC50 (mean of a minimum of 2 experiments, displacement of fluorescent ligand from hTNNI3K ATP binding pocket, 60 min at rt, read-out: pXC50 (the source's name) (converted)) | IC50
CNS(=O)(=O)c1cccc(Nc2cc(Nc3nc(C)co3)ncn2)c1 [Example 284, N-methyl-3-({6-[(4-methyl-1,3-oxazol-2-yl)amino]-4-pyrimidinyl}amino)benzenesulfonamide] | ~100 nM | 
CNS(=O)(=O)c1cccc(Nc2cc(Nc3ccccc3)ncn2)c1 [Example 55, N-methyl-3-{[6-(phenylamino)-4-pyrimidinyl]amino}benzenesulfonamide trifluoroacetate] |  | ~100 nM
